For 25 compounds, EC50 results are on record in US9303012B2, “Pyridine-2-amides useful as CB2 agonists” (Hoffmann-La Roche Inc., priority 2012, dated 2016).

SMILES strings stand for the structures.

One test deals with human CB1 receptors (Homo sapiens (Human), UniProt P21554). In words: functional cAMP assay, CHO cells expressing human CB1 receptors. The test is classed as cell-based. The method, then:
(§1) CHO cells expressing human CB1 or CB2 receptors are seeded 17-24 hours prior to the experiment 50.000 cells per well in a black 96 well plate with flat clear bottom (Corning Costar #3904) in DMEM (Invitrogen No. 31331), 1×HT supplement, with 10% fetal calf serum and incubated at 5% CO2 and 37° C. in a humidified incubator. The growth medium was exchanged with Krebs Ringer Bicarbonate buffer with 1 mM IBMX and incubated at 30° C. for 30 min. Compounds were added to a final assay volume of 100 μl and incubated for 30 min at 30° C. Using the cAMP-Nano-TRF detection kit the assay (Roche Diagnostics) was stopped by the addition of 50 μl lysis reagent (Tris, NaCl, 1.5% Triton X100, 2.5% NP40, 10% NaN3) and 50 μl detection solutions (20 μM mAb Alexa700-cAMP 1:1, and 48 μM Ruthenium-2-AHA-cAMP) and shaken for 2 h at room temperature. The time-resolved energy transfer is measured by a TRF reader (Evotec Technologies GmbH), equipped with a ND:YAG laser as excitation source. The plate is measured twice with the excitation at 355 nm and at the emission with a delay of 100 ns and a gate of 100 ns, total exposure time 10 s at 730 (bandwidth 30 nm) or 645 nm (bandwidth 75 nm), respectively. The FRET signal is calculated as follows: FRET=T730-Alexa730-P(T645-B645) with P=Ru730-B730/Ru645-B645, where T730 is the test well measured at 730 nM, T645 is the test well measured at 645 nm, B730 and B645 are the buffer controls at 730 nm and 645 nm, respectively. cAMP content is determined from the function of a standard curve spanning from 10 μM to 0.13 nM cAMP.
(§2) EC50 values were determined using Activity Base analysis (ID Business Solution, Limited). The EC50 values for a wide range of cannabinoid agonists generated from this assay were in agreement with the values published in the scientific literature.

Another test has as its target human CB2 receptors (Homo sapiens (Human), UniProt P34972). In words: functional cAMP assay, CHO cells expressing human CB2 receptors. The test is classed as cell-based. As to the method: as §1, §2
For orientation: Cyclic AMP is a second messenger, typically raised through Gs and lowered through Gi signalling.

Sequence of human CB2 receptors (P34972 whole entry): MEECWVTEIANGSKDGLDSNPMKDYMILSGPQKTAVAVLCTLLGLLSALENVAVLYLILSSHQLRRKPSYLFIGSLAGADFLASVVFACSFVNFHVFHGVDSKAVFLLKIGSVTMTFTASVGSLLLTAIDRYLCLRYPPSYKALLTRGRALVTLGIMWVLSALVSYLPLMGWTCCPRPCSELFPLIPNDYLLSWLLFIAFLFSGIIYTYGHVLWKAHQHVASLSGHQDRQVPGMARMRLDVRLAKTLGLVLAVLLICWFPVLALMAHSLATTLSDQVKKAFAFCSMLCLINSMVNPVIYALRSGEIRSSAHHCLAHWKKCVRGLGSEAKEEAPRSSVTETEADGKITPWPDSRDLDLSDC
Sequence of human CB1 receptors (P21554 whole entry): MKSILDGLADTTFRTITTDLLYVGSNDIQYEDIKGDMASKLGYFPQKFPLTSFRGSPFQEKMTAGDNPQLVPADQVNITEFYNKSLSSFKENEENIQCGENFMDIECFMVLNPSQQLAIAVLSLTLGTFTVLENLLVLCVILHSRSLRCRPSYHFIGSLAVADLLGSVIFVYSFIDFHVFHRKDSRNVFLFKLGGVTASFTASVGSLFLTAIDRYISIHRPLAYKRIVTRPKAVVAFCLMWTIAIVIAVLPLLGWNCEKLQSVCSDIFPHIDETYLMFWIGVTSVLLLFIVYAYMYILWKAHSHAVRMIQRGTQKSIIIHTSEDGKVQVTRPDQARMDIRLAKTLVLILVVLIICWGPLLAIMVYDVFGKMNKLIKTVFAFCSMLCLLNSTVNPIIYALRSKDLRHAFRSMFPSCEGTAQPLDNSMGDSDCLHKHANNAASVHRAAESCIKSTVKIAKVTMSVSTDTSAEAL

In general, EC50 refers to the concentration giving half of the maximal effect. Higher therefore signals a less potent agent. Take `O=C(c1ccc(N2CC(F)(F)C2)c(OCC2CC2)n1)N(Cc1ccccc1)C1(C(F)(F)F)CC1` [Example 22, 6-Cyclopropylmethoxy-5-(3,3-difluoro-azetidin-1-yl)-pyridine-2-carboxylic acid benzyl-(1-trifluoromethyl-cyclopropyl)-amide]: the EC50 is above 10000 nM on human CB1 receptors and 25 nM on human CB2 receptors.

On to `CCOC(=O)CN(C(=O)c1ccc(N2CC(F)(F)C2)c(OCC2CC2)n1)C(C)(C)C` [Example 23, {tert-Butyl-[6-cyclopropylmethoxy-5-(3,3-difluoro-azetidin-1-yl)-pyridine-2-carbonyl]-amino}-acetic acid ethyl ester], for which the results for the EC50 on human CB1 receptors and at human CB2 receptors were above 10000 nM and 5.8 nM, respectively.

Regarding `CC(C)(C)N(CC(=O)O)C(=O)c1ccc(N2CC(F)(F)C2)c(OCC2CC2)n1` [Example 24, {tert-Butyl-[6-cyclopropylmethoxy-5-(3,3-difluoro-azetidin-1-yl)-pyridine-2-carbonyl]-amino}-acetic acid], the EC50 is above 10000 nM at human CB1 receptors and 340 nM at human CB2 receptors.

For the compound `CC(C)(C)N(Cc1ccccc1)C(=O)c1ccc(N2CC(F)(F)C2)c(OCC2CC2)n1` [Example 25, 6-Cyclopropylmethoxy-5-(3,3-difluoro-azetidin-1-yl)-pyridine-2-carboxylic acid benzyl-tert-butyl-amide], the EC50 at human CB1 receptors is above 10000 nM; on human CB2 receptors, 37 nM.

As for `CNC(=O)CN(C(=O)c1ccc(N2CC(F)(F)C2)c(OCC2CC2)n1)C(C)(C)C` [Example 26, 6-Cyclopropylmethoxy-5-(3,3-difluoro-azetidin-1-yl)-pyridine-2-carboxylic acid tert-butyl-methylcarbamoylmethyl-amide], the EC50 is above 10000 nM on human CB1 receptors and 306 nM at human CB2 receptors.

Regarding `CN(C)C(=O)CN(C(=O)c1ccc(N2CC(F)(F)C2)c(OCC2CC2)n1)C(C)(C)C` [Example 27, 6-Cyclopropylmethoxy-5-(3,3-difluoro-azetidin-1-yl)-pyridine-2-carboxylic acid tert-butyl-dimethylcarbamoylmethyl-amide], the EC50 at human CB1 receptors was above 10000 nM; at human CB2 receptors it was 774 nM.

With `CC1(C)C(=O)NCCN1C(=O)c1ccc(N2CC(F)(F)C2)c(OCC2CC2)n1` [Example 28, 4-[6-Cyclopropylmethoxy-5-(3,3-difluoro-azetidin-1-yl)-pyridine-2-carbonyl]-3,3-dimethyl-piperazin-2-one], the EC50 is above 10000 nM on human CB1 receptors and 414 nM on human CB2 receptors.

As for `CCC1(CC)C(=O)NCCN1C(=O)c1ccc(N2CC(F)(F)C2)c(OCC2CC2)n1` [Example 29, 4-[6-Cyclopropylmethoxy-5-(3,3-difluoro-azetidin-1-yl)-pyridine-2-carbonyl]-3,3-diethyl-piperazin-2-one], the half-maximal effective concentration (EC50) at human CB1 receptors is above 10000 nM; on human CB2 receptors, 414 nM.

For `CC(C)CS(=O)(=O)c1nc(C(=O)N2CCCC2(C)C)ccc1C1CC1` [Example 30, [5-Cyclopropyl-6-(2-methyl-propane-1-sulfonyl)-pyridin-2-yl]-(2,2-dimethyl-pyrrolidin-1-yl)-methanone], the EC50 was above 10000 nM on human CB1 receptors and 34.5 nM at human CB2 receptors.

On to `CC(C)CS(=O)(=O)c1nc(C(=O)N2COCC2(C)C)ccc1C1CC1` [Example 31, [5-Cyclopropyl-6-(2-methyl-propane-1-sulfonyl)-pyridin-2-yl]-(4,4-dimethyl-oxazolidin-3-yl)-methanone], for which the EC50 is above 10000 nM on human CB1 receptors and 82.1 nM on human CB2 receptors.

Consider `Cc1nc([C@H](CC2CC2)N(C)C(=O)c2ccc(N3CC(F)(F)C3)c(OCC3CC3)n2)no1` [Example 32, 6-Cyclopropylmethoxy-5-(3,3-difluoro-azetidin-1-yl)-pyridine-2-carboxylic acid [(S)-2-cyclopropyl-1-(5-methyl-[1,2,4]oxadiazol-3-yl)-ethyl]-methyl-amide], for which the EC50 is above 10000 nM on human CB1 receptors and 256 nM at human CB2 receptors.

With `Cc1nc(C(C2CC2)N(C)C(=O)c2ccc(C3CC3)c(OCC3CCOCC3)n2)no1` (centres unmarked) [Example 33, 5-Cyclopropyl-6-(tetrahydro-pyran-4-ylmethoxy)-pyridine-2-carboxylic acid [cyclopropyl-(5-methyl-[1,2,4]oxadiazol-3-yl)-methyl]-methyl-amide], the EC50 is above 10000 nM at human CB1 receptors and 55.4 nM at human CB2 receptors.

In the case of `CC(C)C[C@H](c1cccnn1)N(C)C(=O)c1ccc(N2CC(F)(F)C2)c(OCC2CC2)n1` [Example 34, (+)-6-Cyclopropylmethoxy-5-(3,3-difluoro-azetidin-1-yl)-pyridine-2-carboxylic acid methyl-(3-methyl-1-pyridazin-3-yl-butyl)-amide], the EC50 on human CB1 receptors was above 10000 nM; on human CB2 receptors, 91.1 nM.

Consider `CC(C)(C)N(CC(N)=O)C(=O)c1ccc(N2CC(F)(F)C2)c(OCC2CC2)n1` [Example 35, 6-Cyclopropylmethoxy-5-(3,3-difluoro-azetidin-1-yl)-pyridine-2-carboxylic acid tert-butyl-carbamoylmethyl-amide], for which the EC50 is above 10000 nM on human CB1 receptors and 183 nM on human CB2 receptors.

Turning to `Cc1nnc(CN(C(=O)c2ccc(N3CC(F)(F)C3)c(OCC3CC3)n2)C(C)(C)C)o1` [Example 36, 6-Cyclopropylmethoxy-5-(3,3-difluoro-azetidin-1-yl)-pyridine-2-carboxylic acid tert-butyl-(5-methyl-[1,3,4]oxadiazol-2-ylmethyl)-amide], the EC50 at human CB1 receptors was above 10000 nM; on human CB2 receptors it was 226 nM.

As to `CC1(O)CCN(C(=O)c2ccc(N3CC(F)(F)C3)c(OCC3CC3)n2)C1` (centres unmarked) [Example 37, [6-Cyclopropylmethoxy-5-(3,3-difluoro-azetidin-1-yl)-pyridin-2-yl]-(3-hydroxy-3-methyl-pyrrolidin-1-yl)-methanone], the half-maximal effective concentration (EC50) is above 10000 nM on human CB1 receptors and 364 nM on human CB2 receptors.

For the compound `O=C(c1ccc(N2CC(F)(F)C2)c(OCC2CC2)n1)N1CCCC12COC2` [Example 38, [6-Cyclopropylmethoxy-5-(3,3-difluoro-azetidin-1-yl)-pyridin-2-yl]-(2-oxa-5-aza-spiro[3.4]oct-5-yl)-methanone], the EC50 was above 10000 nM on human CB1 receptors and 212 nM on human CB2 receptors.

With `CCN(CCOC)C(=O)c1ccc(N2CC(F)(F)C2)c(OCC2CC2)n1` [Example 39, 6-Cyclopropylmethoxy-5-(3,3-difluoro-azetidin-1-yl)-pyridine-2-carboxylic acid ethyl-(2-methoxy-ethyl)-amide], the figures for the EC50 at human CB1 receptors and on human CB2 receptors were above 10000 nM and 142 nM, respectively.

With `Cn1nnnc1CN(C(=O)c1ccc(N2CC(F)(F)C2)c(OCC2CC2)n1)C(C)(C)C` [Example 40, 6-Cyclopropylmethoxy-5-(3,3-difluoro-azetidin-1-yl)-pyridine-2-carboxylic acid tert-butyl-(1-methyl-1H-tetrazol-5-ylmethyl)-amide], the EC50 on human CB1 receptors is above 10000 nM; on human CB2 receptors, 81.8 nM.

On to `CC(=O)NC1CCN(C(=O)c2ccc(N3CC(F)(F)C3)c(OCC3CC3)n2)C1` (centres unmarked) [Example 41, N-{1-[6-Cyclopropylmethoxy-5-(3,3-difluoro-azetidin-1-yl)-pyridine-2-carbonyl]-pyrrolidin-3-yl}-acetamide], for which the figures for the EC50 at human CB1 receptors and on human CB2 receptors were above 10000 nM and 966 nM, respectively.

For the compound `CC1(C)CCN(C(=O)c2ccc(C3CC3)c(Cc3ccc(F)cc3)n2)CC1` [Example 42, [5-Cyclopropyl-6-(4-fluoro-benzyl)-pyridin-2-yl]-(4,4-dimethyl-piperidin-1-yl)-methanone], the EC50 at human CB1 receptors is above 10000 nM; at human CB2 receptors, 9 nM.

Turning to `CC1(C)CCN(C(=O)c2ccc(C3CC3)c(OCC3CCCO3)n2)CC1` (centres unmarked) [Example 43, [5-Cyclopropyl-6-(tetrahydro-furan-2-ylmethoxy)-pyridin-2-yl]-(4,4-dimethyl-piperidin-1-yl)-methanone], the EC50 is above 10000 nM at human CB1 receptors and 34.9 nM at human CB2 receptors.

For `CC1(C)COCN1C(=O)c1ccc(C2CC2)c(Cc2ccc(F)cc2)n1` [Example 44, [5-Cyclopropyl-6-(4-fluoro-benzyl)-pyridin-2-yl]-(4,4-dimethyl-oxazolidin-3-yl)-methanone], the EC50 on human CB1 receptors was found to be 408 nM; at human CB2 receptors, 3.1 nM.

`CC1(C)C[C@@H]2C[C@@](C)(CN2C(=O)c2ccc(N3CC(F)(F)C3)c(OCC3CC3)n2)C1` [Example 45, [6-Cyclopropylmethoxy-5-(3,3-difluoro-azetidin-1-yl)-pyridin-2-yl]-((1S,5R)-1,3,3-trimethyl-6-aza-bicyclo[3.2.1]oct-6-yl)-methanone]: the 50% effective concentration (EC50) on human CB1 receptors was above 10000 nM; on human CB2 receptors it was 6.8 nM.

Turning to `COC[C@H]1CCCN1C(=O)c1ccc(N2CC(F)(F)C2)c(OCC2CC2)n1` [Example 46, [6-Cyclopropylmethoxy-5-(3,3-difluoro-azetidin-1-yl)-pyridin-2-yl]-((R)-2-methoxymethyl-pyrrolidin-1-yl)-methanone], the EC50 on human CB1 receptors was above 10000 nM; at human CB2 receptors, 360 nM.
